Results as given in US20090298820A1, “3-SUBSTITUTED-1H-PYRROLO[2,3-B]PYRIDINE AND 3-SUBSTITUTED-1H-PYRROLO[3,2-B]PYRIDINE COMPOUNDS, THEIR USE AS MTOR KINASE AND PI3 KINASE INHIBITORS, AND THEIR SYNTHESES” (Wyeth, priority 2008, published 2009).

Columns and labels:
[1] = target: PI3Kα (Homo sapiens, UniProt P42336); assay: PI3K-alpha fluorescence polarization assay; assay type: biochemical; settings: read-out: PI3Kα Median IC50
[2] = target: PI3Kγ (Homo sapiens, UniProt P48736); assay: PI3K-gamma fluorescence polarization assay; assay type: biochemical; settings: read-out: PI3Kγ Median IC50
PI3Kγ, sequence (P48736 whole entry, species assumed): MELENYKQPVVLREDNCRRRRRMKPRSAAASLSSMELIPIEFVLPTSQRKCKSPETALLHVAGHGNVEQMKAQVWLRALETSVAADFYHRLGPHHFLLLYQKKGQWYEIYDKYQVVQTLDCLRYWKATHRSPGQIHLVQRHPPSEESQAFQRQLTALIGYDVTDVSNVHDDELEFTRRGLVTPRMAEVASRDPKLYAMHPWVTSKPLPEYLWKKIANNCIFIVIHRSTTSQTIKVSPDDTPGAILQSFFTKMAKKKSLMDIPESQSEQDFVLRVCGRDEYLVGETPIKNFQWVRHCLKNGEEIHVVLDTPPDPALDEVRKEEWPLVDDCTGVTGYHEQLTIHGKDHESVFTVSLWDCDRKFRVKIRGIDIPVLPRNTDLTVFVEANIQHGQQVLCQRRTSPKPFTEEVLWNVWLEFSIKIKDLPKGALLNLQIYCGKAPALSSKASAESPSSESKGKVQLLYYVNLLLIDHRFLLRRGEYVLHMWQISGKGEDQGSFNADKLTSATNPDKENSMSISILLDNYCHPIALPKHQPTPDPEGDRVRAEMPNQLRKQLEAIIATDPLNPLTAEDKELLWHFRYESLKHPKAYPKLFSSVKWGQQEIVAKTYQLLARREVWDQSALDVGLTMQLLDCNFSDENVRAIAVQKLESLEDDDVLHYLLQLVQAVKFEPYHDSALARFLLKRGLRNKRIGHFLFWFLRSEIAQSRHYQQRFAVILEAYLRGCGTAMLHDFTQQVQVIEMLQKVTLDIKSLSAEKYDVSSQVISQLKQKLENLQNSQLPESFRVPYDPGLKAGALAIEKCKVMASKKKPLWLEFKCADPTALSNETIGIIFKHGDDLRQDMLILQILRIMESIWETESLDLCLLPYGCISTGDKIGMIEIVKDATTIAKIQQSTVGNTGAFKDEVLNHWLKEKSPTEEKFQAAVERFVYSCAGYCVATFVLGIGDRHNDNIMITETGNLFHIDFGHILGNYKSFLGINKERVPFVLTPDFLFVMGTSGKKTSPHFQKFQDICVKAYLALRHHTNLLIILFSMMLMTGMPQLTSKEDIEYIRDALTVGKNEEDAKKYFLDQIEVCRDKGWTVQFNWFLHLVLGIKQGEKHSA

[3] = target: mTOR (Homo sapiens, UniProt P42345); assay: mTOR enzyme assay (DELFIA format, His6-S6K substrate); assay type: biochemical; settings: read-out: mTOR Kinase Median IC50

PI3Kα, sequence (P42336 whole entry, species assumed): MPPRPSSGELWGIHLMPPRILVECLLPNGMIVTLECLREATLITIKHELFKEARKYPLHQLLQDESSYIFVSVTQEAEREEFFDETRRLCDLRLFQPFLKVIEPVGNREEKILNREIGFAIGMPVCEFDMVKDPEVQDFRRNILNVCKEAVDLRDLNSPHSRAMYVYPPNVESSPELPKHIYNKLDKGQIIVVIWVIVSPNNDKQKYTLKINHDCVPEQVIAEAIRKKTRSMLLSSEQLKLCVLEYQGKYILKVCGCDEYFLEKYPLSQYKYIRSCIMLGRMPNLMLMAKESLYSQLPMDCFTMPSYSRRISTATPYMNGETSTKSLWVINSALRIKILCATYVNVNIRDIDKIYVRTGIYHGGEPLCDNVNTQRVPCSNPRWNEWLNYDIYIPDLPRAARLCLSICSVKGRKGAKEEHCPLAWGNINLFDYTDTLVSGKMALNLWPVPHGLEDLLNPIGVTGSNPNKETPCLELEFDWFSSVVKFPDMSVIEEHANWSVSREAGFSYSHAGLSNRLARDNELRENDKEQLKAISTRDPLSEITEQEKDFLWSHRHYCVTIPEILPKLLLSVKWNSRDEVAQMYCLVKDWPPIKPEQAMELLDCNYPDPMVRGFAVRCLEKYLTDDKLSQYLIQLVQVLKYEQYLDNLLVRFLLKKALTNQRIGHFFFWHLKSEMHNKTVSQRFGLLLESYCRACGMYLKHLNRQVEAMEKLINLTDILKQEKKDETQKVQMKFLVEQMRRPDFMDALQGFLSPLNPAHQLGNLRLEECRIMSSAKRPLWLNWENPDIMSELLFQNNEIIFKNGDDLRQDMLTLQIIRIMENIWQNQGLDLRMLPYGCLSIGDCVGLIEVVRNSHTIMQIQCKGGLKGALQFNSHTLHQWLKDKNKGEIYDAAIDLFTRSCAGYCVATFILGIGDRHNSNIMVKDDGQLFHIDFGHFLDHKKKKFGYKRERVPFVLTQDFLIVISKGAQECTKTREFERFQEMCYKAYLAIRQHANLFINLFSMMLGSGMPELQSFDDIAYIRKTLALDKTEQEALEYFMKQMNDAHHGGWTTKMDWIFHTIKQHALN
PI3Kα, sequence (P27986 whole entry partner, species assumed): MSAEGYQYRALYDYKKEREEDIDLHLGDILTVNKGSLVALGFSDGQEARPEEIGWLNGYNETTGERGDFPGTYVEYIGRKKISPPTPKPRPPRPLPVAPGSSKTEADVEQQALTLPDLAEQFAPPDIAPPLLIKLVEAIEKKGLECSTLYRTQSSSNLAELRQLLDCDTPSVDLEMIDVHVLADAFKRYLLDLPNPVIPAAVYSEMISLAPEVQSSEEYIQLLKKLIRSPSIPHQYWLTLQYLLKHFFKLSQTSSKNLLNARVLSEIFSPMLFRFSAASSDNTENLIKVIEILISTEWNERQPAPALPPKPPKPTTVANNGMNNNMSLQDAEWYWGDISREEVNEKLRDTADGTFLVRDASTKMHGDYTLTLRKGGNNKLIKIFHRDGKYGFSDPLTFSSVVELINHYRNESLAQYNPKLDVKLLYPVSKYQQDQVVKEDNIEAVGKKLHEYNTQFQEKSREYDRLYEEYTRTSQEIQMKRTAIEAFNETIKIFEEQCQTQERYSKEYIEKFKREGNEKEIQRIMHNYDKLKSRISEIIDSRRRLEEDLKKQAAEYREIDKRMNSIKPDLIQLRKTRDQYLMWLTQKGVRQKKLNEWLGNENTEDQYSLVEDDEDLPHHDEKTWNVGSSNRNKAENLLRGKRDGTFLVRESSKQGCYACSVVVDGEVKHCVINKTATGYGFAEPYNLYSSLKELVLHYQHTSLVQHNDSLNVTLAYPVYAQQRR

IC50 [1] | IC50 [2] | IC50 [3] | melting point | SMILES
150 nM | 306 nM | 14.5 nM | 275 to 285 °C (dec.) | CC(=O)Nc1ccc2c(c1)C(=O)/C(=C/c1cn(C)c3nccc(N4CC5CCC(C4)O5)c13)O2 [Compound 155, N-[(2Z)-2-{[1-methyl-4-(8-oxa-3-azabicyclo[3.2.1]oct-3-yl)-1H-pyrrolo[2,3-b]pyridin-3-yl]methylidene}-3-oxo-2,3-dihydro-1-benzofuran-5-yl]acetamide]
1940 nM | 6910 nM | 1650 nM | 295 to 302 °C | Cn1cc(/C=C2\Oc3ccc(NC(=O)C(F)(F)F)cc3C2=O)c2c(-c3ccccc3)ccnc21 [Compound 156, 2,2,2-trifluoro-N-{(2Z)-2-[(1-methyl-4-phenyl-1H-pyrrolo[2,3-b]pyridin-3-yl)methylidene]-3-oxo-2,3-dihydro-1-benzofuran-5-yl}acetamide]
74 nM | 78 nM | 9.4 nM | 252 to 260 °C (dec.) | Cn1cc(/C=C2\Oc3cccc(O)c3C2=O)c2c(-c3ccc(N4CC5CCC(C4)O5)cc3)ccnc21 [Compound 157, (2Z)-4-hydroxy-2-({1-methyl-4-[4-(8-oxa-3-azabicyclo[3.2.1]oct-3-yl)phenyl]-1H-pyrrolo[2,3-b]pyridin-3-yl}methylidene)-1-benzofuran-3(2H)-one]
5500 nM | > 10000 nM | 397 nM | 275 to 280 °C | CN(C)C(=O)Nc1ccc2c(c1)C(=O)/C(=C/c1cn(C)c3nccc(-c4ccccc4)c13)O2 [Compound 161, 1,1-dimethyl-3-{(2Z)-2-[(1-methyl-4-phenyl-1H-pyrrolo[2,3-b]pyridin-3-yl)methylidene]-3-oxo-2,3-dihydro-1-benzofuran-5-yl}urea]
5900 nM | 7430 nM | > 4000 nM | 257 to 262 °C | Cn1cc(/C=C2\Oc3ccc(NS(C)(=O)=O)cc3C2=O)c2c(-c3ccccc3)ccnc21 [Compound 162, N-{(2Z)-2-[(1-methyl-4-phenyl-1H-pyrrolo[2,3-b]pyridin-3-yl)methylidene]-3-oxo-2,3-dihydro-1-benzofuran-5-yl}methanesulfonamide]
39 nM | 131 nM | 3.1 nM | 239 to 244 °C | CN1CCN(C(=O)C2CCN(c3ccnc4c3c(/C=C3\Oc5cccc(O)c5C3=O)cn4C)CC2)CC1 [Compound 164, (2Z)-4-hydroxy-2-[(1-methyl-4-{4-[(4-methylpiperazin-1-yl)carbonyl]piperidin-1-yl}-1H-pyrrolo[2,3-b]pyridin-3-yl)methylidene]-1-benzofuran-3(2H)-one]
2080 nM | > 10000 nM | 14.3 nM | 226 to 230 °C | Cn1cc(/C=C2\Oc3ccc(NC(=O)Nc4cccnc4)cc3C2=O)c2c(N3CC4CCC(C3)O4)ccnc21 [Compound 167, 1-[(2Z)-2-{[1-methyl-4-(8-oxa-3-azabicyclo[3.2.1]oct-3-yl)-1H-pyrrolo[2,3-b]pyridin-3-yl]methylidene}-3-oxo-2,3-dihydro-1-benzofuran-5-yl]-3-pyridin-3-ylurea]
420 nM | 487 nM | 6.7 nM | 203 °C | CNC(=O)Nc1ccc2c(c1)C(=O)/C(=C/c1cn(C)c3nccc(N4CCC(C(=O)N(C)C)CC4)c13)O2 [Compound 168, N,N-dimethyl-1-{1-methyl-3-[(Z)-{5-[(methylcarbamoyl)amino]-3-oxo-1-benzofuran-2(3H)-ylidene}methyl]-1H-pyrrolo[2,3-b]pyridin-4-yl}piperidine-4-carboxamide]
> 10000 nM | 1170 nM | 11.5 nM | 241 °C | CN(C)C(=O)C1CCN(c2ccnc3c2c(/C=C2\Oc4ccc(Br)cc4C2=O)cn3C)CC1 [Compound 169, 1-{3-[(Z)-(5-bromo-3-oxo-1-benzofuran-2(3H)-ylidene)methyl]-1-methyl-1H-pyrrolo[2,3-b]pyridin-4-yl}-N,N-dimethylpiperidine-4-carboxamide]
3110 nM | > 10000 nM | 91.5 nM | 128 °C | CN(C)C(=O)C1CCN(c2ccnc3c2c(/C=C2\Oc4ccc(NC(=O)N5CCOCC5)cc4C2=O)cn3C)CC1 [Compound 170, N-[(2Z)-2-({4-[4-(dimethylcarbamoyl)piperidin-1-yl]-1-methyl-1H-pyrrolo[2,3-b]pyridin-3-yl}methylidene)-3-oxo-2,3-dihydro-1-benzofuran-5-yl]morpholine-4-carboxamide]
> 10000 nM | > 10000 nM | 18 nM | 246 to 251 °C | Cn1cc(/C=C2\Oc3ccc(NC(=O)Nc4cccnc4)cc3C2=O)c2c(N3CCC(C(=O)N4CCOCC4)CC3)ccnc21 [Compound 173, 1-[(2Z)-2-({1-methyl-4-[4-(morpholin-4-ylcarbonyl)piperidin-1-yl]-1H-pyrrolo[2,3-b]pyridin-3-yl}methylidene)-3-oxo-2,3-dihydro-1-benzofuran-5-yl]-3-pyridin-3-ylurea]
337 nM | 337 nM | 16.5 nM | 235 to 240 °C | CNC(=O)Nc1ccc2c(c1)C(=O)/C(=C/c1cn(C)c3nccc(N4CCC(C(=O)N5CCOCC5)CC4)c13)O2 [Compound 174, 1-methyl-3-[(2Z)-2-({1-methyl-4-[4-(morpholin-4-ylcarbonyl)piperidin-1-yl]-1H-pyrrolo[2,3-b]pyridin-3-yl}methylidene)-3-oxo-2,3-dihydro-1-benzofuran-5-yl]urea]
> 10000 nM | > 10000 nM | 445 nM | 329 to 342 °C | Cn1cc(/C=C2\Oc3ccc(C(=O)O)cc3C2=O)c2c(-c3ccccc3)ccnc21 [Compound 176, (2Z)-2-[(1-methyl-4-phenyl-1H-pyrrolo[2,3-b]pyridin-3-yl)methylidene]-3-oxo-2,3-dihydro-1-benzofuran-5-carboxylic acid]
34 nM | 99 nM | 195 nM | 255 to 256 °C | CN(C)CCNC(=O)c1ccc2c(c1)C(=O)/C(=C/c1cn(C)c3nccc(-c4ccccc4)c13)O2 [Compound 187, (2Z)-N-[2-(dimethylamino)ethyl]-2-[(1-methyl-4-phenyl-1H-pyrrolo[2,3-b]pyridin-3-yl)methylidene]-3-oxo-2,3-dihydro-1-benzofuran-5-carboxamide]
> 10000 nM | > 10000 nM | 2450 nM | 211 to 213 °C | CN1CCN(C(=O)Nc2ccc3c(c2)C(=O)/C(=C/c2cn(C)c4nccc(-c5ccccc5)c24)O3)CC1 [Compound 188, 4-methyl-N-{(2Z)-2-[(1-methyl-4-phenyl-1H-pyrrolo[2,3-b]pyridin-3-yl)methylidene]-3-oxo-2,3-dihydro-1-benzofuran-5-yl}piperazine-1-carboxamide]
2030 nM | 2040 nM | 10.5 nM | 165 to 175 °C (dec.) | CN(C)C(=O)C1CCN(c2ccnc3c2c(/C=C2\Oc4ccc(NC(=O)Nc5cccnc5)cc4C2=O)cn3C)CC1 [Compound 189, N,N-dimethyl-1-{1-methyl-3-[(Z)-{3-oxo-5-[(pyridin-3-ylcarbamoyl)amino]-1-benzofuran-2(3H)-ylidene}methyl]-1H-pyrrolo[2,3-b]pyridin-4-yl}piperidine-4-carboxamide]
24 nM | 45 nM | 5.6 nM | 175 to 180 °C | CN(C)CCNC(=O)Nc1ccc2c(c1)C(=O)/C(=C/c1cn(C)c3nccc(N4CC5CCC(C4)O5)c13)O2 [Compound 193, 1-[2-(dimethylamino)ethyl]-3-[(2Z)-2-{[1-methyl-4-(8-oxa-3-azabicyclo[3.2.1]oct-3-yl)-1H-pyrrolo[2,3-b]pyridin-3-yl]methylidene}-3-oxo-2,3-dihydro-1-benzofuran-5-yl]urea]
237 nM | 472 nM | 34 nM | 170 to 172 °C | CN1CCN(CCNC(=O)Nc2ccc3c(c2)C(=O)/C(=C/c2cn(C)c4nccc(N5CC6CCC(C5)O6)c24)O3)CC1 [Compound 194, 1-[(2Z)-2-{[1-methyl-4-(8-oxa-3-azabicyclo[3.2.1]oct-3-yl)-1H-pyrrolo[2,3-b]pyridin-3-yl]methylidene}-3-oxo-2,3-dihydro-1-benzofuran-5-yl]-3-[2-(4-methylpiperazin-1-yl)ethyl]urea]
2370 nM | 3000 nM | 130 nM | 285 to 289 °C | Cn1cc(/C=C2\Oc3ccc(C(=O)O)cc3C2=O)c2c(N3CC4CCC(C3)O4)ccnc21 [Compound 197, (2Z)-2-{[1-methyl-4-(8-oxa-3-azabicyclo[3.2.1]oct-3-yl)-1H-pyrrolo[2,3-b]pyridin-3-yl]methylidene}-3-oxo-2,3-dihydro-1-benzofuran-5-carboxylic acid]
293 nM | 249 nM | 19.5 nM | 257 to 259 °C | Cn1cc(/C=C2\Oc3ccc(NC(=O)Nc4ccncc4)cc3C2=O)c2c(N3CC4CCC(C3)O4)ccnc21 [Compound 198, 1-[(2Z)-2-{[1-methyl-4-(8-oxa-3-azabicyclo[3.2.1]oct-3-yl)-1H-pyrrolo[2,3-b]pyridin-3-yl]methylidene}-3-oxo-2,3-dihydro-1-benzofuran-5-yl]-3-pyridin-4-ylurea]
1060 nM | 2180 nM | 105 nM | 234 to 241 °C | Cn1cc(/C=C2\Oc3ccc(NC(=O)NCCCCl)cc3C2=O)c2c(N3CC4CCC(C3)O4)ccnc21 [Compound 240, 1-(3-chloropropyl)-3-[(2Z)-2-{[1-methyl-4-(8-oxa-3-azabicyclo[3.2.1]oct-3-yl)-1H-pyrrolo[2,3-b]pyridin-3-yl]methylene}-3-oxo-2,3-dihydro-1-benzofuran-5-yl]urea]
